Data set [1] deals with Varroa mites. Nature of the data set: Example 6 behavioral dose response bio-assays of Varroa mites. The class given is in vivo. The text has this: Foragers were collected at the entrance of one or more honey bee hives by aspiration into a jar, when bees were flying back to the colony.
Initially, nurses were collected from an open brood frame of a honey bee hive. Bees apparently attending the brood were targeted for collection. As time passed and temperatures started to drop no open brood was observed, therefore subsequent collections targeted bees around sealed brood. At the end of the sampling period no sealed brood was present, so bees taken from the middle frame of a brood chamber were considered nurses.
Both foragers and nurses were immediately transferred to individual plastic cages (118×98×81 mm: H×W×D), fed with syrup (2:1) and kept overnight in an incubator at 30° C. and 70% RH. Next day, cages were inspected for any dead bees to be removed before freeze killing the bees on dry ice.
For Varroa mite collection, adult bees were taken from the brood chamber's central frames of a mite-infested hive using a glass jar. Bees were fed with syrup (2:1), and kept in an incubator at 30° C. and 70% RH until needed. First collections were made from frames with open and sealed brood, later only from sealed brood frames.
Mite-infested bees in the glass jar were dusted with icy sugar and shaken over a large plastic weighing boat. Dislodged Varroa were immediately transferred with a fine paint brush to a wet filter paper in a plastic petri dish to avoid desiccation. Individual mites were placed then onto the middle of a glass petri dish bottom (10 cm diameter) with a fresh freeze-killed forager or nurse bee on opposite sides of the plate. Synthesized compounds were applied onto a 1 cm^2 Parafilm square attached to the center of the petri dish cover's inner face, Hexane was used as control.
The bio-assays with a forager and a nurse bee, Varroa mite, and synthesized compounds were set in glass petri dishes placed into an incubator at 30° C. and 70% relative humidity. […] Mite paralysis and death were recorded after 3 h and 5 h.

The test system of data set [2] is Varroa mites phoretic on young bees. As to the kind of experiment: Example 2 assay on mites phoretic on young bees (mite fall). The class given is in vivo, Varroa destructor. Conditions: 100 microgram/μl solution and dilutions; end of experiment. On the procedure: The experiments were conducted in glass petri dish under control environment as described above in Example 1. Two sets of experiments were conducted compound 3c{3,6}:
2. Assay on mites phoretic on young bees. In this experiment 100 microgram/μ1 solution and its dilutions were used. Two mites were placed on each living young bee.
In the second assay the percentage of mites dropping from bees as function of time was measured (FIG. 2).

The subject of data set [3] is Varroa foreleg. Nature of the data set: Electroantennography (EAG) on Varroa foreleg stimulated with nurse bee headspace odor. Also on record: species or system Varroa destructor. The text has this: (§1) In the electroantennography (EAG), the Varroa foreleg or bee antennae were used for the assay. The organs were stimulated by puffs of nurse honeybee odor, or clean air (control). Briefly, once a foreleg or bee antenna preparation was found responsive to a positive stimulus, the tested chemical was blown over the leg/antenna with or without positive stimuli. Headspace of five nurse bees was used as a positive stimulus. This stimuli were selected for Varroa following the procedure described, for example, in Eliash, N. et al., (2014) PLoS One, (2014) 9(12): e116127, incorporated herein by reference in its entirety, and following dose response tests on nurse antennae challenged with headspace of 1, 5 and 10 nurse or forager bees. Electrophysiological responses of isolated Varroa foreleg and bee antennae were recorded using Synthech equipment, and the order of stimuli was as explained in Singh, K. N. et al., (2014) Apidologie, 46: 380-391, incorporated herein by reference in its entirety. The response amplitude was recorded for each stimulus and normalized relative to air.

The test system of data set [4] is honey bee antennae. As to the kind of experiment: Electroantennography (EAG) on honey bee antennae stimulated with nurse bee headspace odor. Also on record: species or system Apis mellifera.
From the text: as §1

Data set [5] has as its system honey bees. Nature of the data set: Bee mortality in hoarding cages, 3c{3,6} sensed by smell. Type of data set: in vivo, Apis mellifera. As to the method:
3c{3,6} sensed by smell: Bees were maintained in the classic hoarding cages. The test was conducted on twenty freshly collected bees in hoarding cages as above. The method that was used for screening potentially harmful compounds was as described, for example, in Medrzycki et al., 2013 (J. Apicultural Res. 52 (4): UNSP 52.4.14, http://dx.doi.org/10.3896/IBRA.1.52.4.14, incorporated herein by reference in its entirety. The bees were provided with water and candy at lib. The experiments were conducted in ten sets in the presence of 30 μl of hexane containing 300 μg of the 3c{3,6} compound presented in Parafilm (5×5 cm); 30 μl of pure hexane was used for control. The experimental and control cages were kept in separate incubators at (28-30° C.) and RH (50-70%) and the bee mortality rate was recorded at 24, 48 and 72 hours. Survival of bees in control and treated groups at the end was similar (79-90%).

In data set [6] the test system is honey bees. As to the kind of experiment: Bee mortality in hoarding cages, 3c{3,6} provided in sugar solution. Type of data set: in vivo, Apis mellifera. As to the method:
3c{3,6} provided in sugar solution: The test was conducted on twenty freshly collected bees in hoarding cages as described above. […] In addition, no differences were apparent in the general behavior of the honeybees. Furthermore, honey bees can ingest compound 3c{3,6} without harm and without increase in mortality.

The values that follow come from patent US11540515B2, “Use of dialkoxybenzenes for control of honey bee mite varroa destructor” (Simon Fraser University, priority 2018, dated 2023).

Entries after “also recorded” stand apart in the source; their conditions may differ.

In the case of `C=CCOc1ccc(OCCC)cc1` [3c{3,6}, 1-allyloxy-4-propoxybenzene], the mites dead result in data set [1] (100 μg) is given as “half of the mites dead”. Further, in data set [1] (1 mg), the mite paralysis/mortality turned out to be 100% and the “mite paralysis/mortality (words)” value is recorded as “total effectivity; also recorded: all mites”. Besides, the “doses at which mites were paralyzed or killed” value in data set [1] (FIG. 9 / FIG. 10) is not below 10 µg. In addition, in data set [2], the “mites dropping from bees as function of time (FIG. 2)” value is listed as “dropped dead off the bees”. For the same molecule, in data set [3], the “Varroa foreleg responses towards head space odor of nurse bees” value is “decreases”. In data set [4], the “response of honey bee antennae towards nurse bee head space odor” value was “not affected”. In addition, the “Survival of bees at the end” value in data set [5] (300 μg in 30 μl hexane on Parafilm, 72 hours, control and treated groups similar) is given as 79-90%. Further, in data set [5] (in vivo), the “lethal effect to the honey bees” value is recorded as “No lethal effect”. Besides, in data set [6], the “effect on the honeybees” value is given as “did not have negative effect”. Also, the “bees died at the end of experiment” value in data set [6] (after 72 hours, treated group (control 21%)) was found to be 5%.
